Measurements: US20180344725A1, “QUINOLONE CHALCONE COMPOUNDS AND USES THEREOF” (priority 2015, published 2018)

Columns and labels:
[1] = test system: MCF10AT1; assay: SRB cell viability, isogenic breast cell lines; type: cell-based; settings: 0.39 μM, 72 hours
Protocol: (§1) FIG. 9 illustrates that CTR-17, CTR-20, CTR-21 and CTR-32 preferentially kill the fully malignant […] breast cancer cells over the pre-malignant MCF10AT1 and the non-malignant MCF-10A breast cells. Cells were treated with (A) CTR-17 at doses of 0.10, 0.39, 1.56 or 6.25 μM; (B) CTR-20 at doses of 0.10, 0.39, 1.56 or 6.25 μM; (C) CTR-21 at doses of 7.81, 15.63, 31.25, 62.5, 125 or 250 nM; or (D) CTR-32 at doses of 7.81, 15.63, 31.25, 62.5, 125 or 250 nM for 72 hours. Cell viability was determined using an SRB assay.
(§2) All of the cell lines used were purchased from ATCC and cultured in RPMI-1640 supplemented with 10% fetal bovine serum and antibiotics (100 units penicillin/100 μg/ml streptomycin), unless stated otherwise. 1845B5 and MCF-10A non-cancer breast cell lines were cultured in DME/F12 medium supplemented with 10% fetal bovine serum, antibiotics and growth factors. KB-3-1 is a human epidermal carcinoma cell line and KB-C-2 is its isogenic multidrug-resistant cell line with over-expressing ABCB1/P-gp. […] The human small cell lung carcinoma H69 cell line and its multidrug-resistant MRP1-overexpressing isogenic H69AR cell line were purchased from ATCC. The H69AR cell line was established in the presence of increasing concentrations of Adriamycin (doxorubicin). H69 cells grow as large multi-cell aggregates, making it difficult to accurately count cell numbers. Therefore, the cytotoxicity results obtained from H69AR cells were compared to SW1271, a small cell lung carcinoma cell line without a multidrug-resistant phenotype. The IL-6 dependent bortezomib-resistant ANBL6-BR cell line was further supplemented with 1 ng/ml of IL-6. The MCF10AT1 and MCF10CA1a cell lines are isogenic to the MCF10A cell line, and obtained from Dr. Valerie Weaver at the Center for Bioengineering and Tissue Regeneration, UCSF, CA, USA. MCF10AT1 is a premalignant cell line generated by transforming MCF10A with c-Ha-Ras; and MCF10CA1a was isolated by selecting malignant cells after MCF10AT1 cells were engrafted into mice (Liu & Lin 2004; Marella et al. 2009). The MCF10AT1 and MCF10CA1a cells were cultured in DMEM supplemented with 10% FBS (volume/volume). MDA-MB231TaxR cell line was generated in house by culturing MDA-MB231 cells in gradually increasing doses of paclitaxel over one-year period, and finally maintained at 100 nM paclitaxel. The drug-resistant cells were cultured in the absence of drug for at least one passage before carrying out experiments. All cells were maintained in a humidified incubator at 37° C. (5% CO2/95% air). Cell line authentication was performed using short tandem repeat (STR) profiling.
(§3) For (anti)proliferation assays, 4,000-5,000 cells/well of the 96-well clustered dish were incubated for 16 hours, as described previously (Hu et al., 2008; Skehan et al., 1990). After 16 hours, culture medium was replaced with fresh medium containing different dilutions of test compounds dissolved in DMSO. Some wells were treated with 100 μl of 10% trichloroacetic acid (TCA) as a negative control and sham (medium with dimethyl sulfoxide; DMSO) treated cells were used as a positive control. After 72 hours post-incubation, medium was removed and cells were fixed with 10% TCA at 4° C. for 1 hour. TCA was removed and cells were washed with cold tap water, and plate was air-dried, followed by addition of 50 μl of 0.4% SRB staining solution to each well. After 30 minutes incubation, SRB staining solution was removed. Cells were washed with 1% acetic acid solution, and then washed with tap water to remove unbound staining solution, followed by air-drying. 200 μl of 10 mM (pH10.5) trizma base buffer was added to each well to solubilise macromolecules. SRB stained macromolecules were determined at a 540 nm wavelength using an automated plate reader (Synergy H4 Hybrid Multi-Mode Microplate Reader, BioTek, Winooski, Vt.). Cell growth (inhibition) was calculated by the following formula: […]

[2] = Kidney histology (H&E); type: in vivo, mice; settings: day 30; paclitaxel 10 mg/kg; CTR 30 mg/kg; or paclitaxel 5 mg/kg + CTR 15 mg/kg
Protocol: Animals were monitored for food and water consumption every day, and their body weights and tumor volumes were measured twice per week. Tumor volumes were measured with a digital caliper and were determined by using the following formula: ½ length×width^2. Blood samples were collected via cardiac puncture and processed further for ALT and AST measurements. The animals were then immediately euthanized by carbon dioxide. Tumors and vital organs (spleen, kidney, liver and lung) were collected and fixed in 10% buffered formalin at 4° C. overnight before being processed for paraffin embedding. The paraffin-embedded blocks were then cut into 4-5 μm thick sections. Each section of tumors and organs was stained with hematoxylin and eosin (H&E).
Changes in body weight, hemoglobin (Hb) and the amount and ratio of alanine transaminase (ALT)/aspartate transaminase (AST) were used to measure toxic effects. In addition, vital organs (liver, spleen, kidney and lung) were analyzed by […] after they were harvested, fixed, processed, paraffin-embedded, sectioned, and stained as described above.
ATH490 mice were treated as described in Table 11. At day 30, kidneys were harvested, stained with H&E, and observed under a Zeiss EPI-fluorescent microscope (40× objective).

[3] = Liver mitotic cells; type: in vivo, mice; settings: 30 days; 10 mg paclitaxel, 30 mg CTR, or paclitaxel (5 mg) + CTR (15 mg)
Protocol: ATH490 athymic mice were treated as indicated in the listed concentrations for 30 days (FIG. 45A), and then the liver cell proliferation analyzed by examining the number of mitotic cells (white arrows in FIG. 45A). “Tax” denotes paclitaxel. The numbers in the brackets in (FIG. 45B) are mg/kg body weight. […] However, this small increase is considered normal as the AST/ALT ratio is <3 (Table 14).

[4] = test system: RPMI-8226BTZR; assay: Killing of bortezomib-resistant multiple myeloma cells; type: cell-based
From the text: The RPMI-8226BTZR over-expresses β1, β2 and β5 peptides of the 20S subunit. […] However, RPMI-8226BTZR is sensitive to CTR-20, CTR-21 and CTR-32 (FIG. 36).

[5] = SRB cell viability, isogenic breast cell lines; type: cell-based; settings: human, MCF10AT1 cells (pre-malignant breast cells), 31.25 nM
Protocol: as §1, §2, §3

Compound	Cell survival rate [1] [%]	effects on the kidney [2]	mitotic index in the liver [3]	sensitivity of RPMI-8226BTZR [4]	viability at 72 h, 0.03125 µM [5] [%]
COc1ccccc1C(=O)/C=C/c1cc2ccccc2[nH]c1=O [CTR-17, (E)-3-(3-(2-Methoxyphenyl)-3-oxoprop-1-enyl)quinolin-2(1H)-one]	60	generally did not cause any notable ill-effects to the kidney	small increases in the mitotic index	–	–
COc1ccc2[nH]c(=O)c(/C=C/C(=O)c3ccccc3OC)cc2c1 [CTR-20, (E)-6-Methoxy-3-(3-(2-methoxyphenyl)-3-oxoprop-1-enyl) quinolin-2(1H)-one]	20	generally did not cause any notable ill-effects to the kidney	small increases in the mitotic index	sensitive	–
COc1ccccc1C(=O)/C=C/c1cc2cccc(OC)c2[nH]c1=O [CTR-21, (E)-8-methoxy-3-(3-(2-methoxyphenyl)-3-oxoprop-1-enyl) quinolin-2(1H)-one]	–	–	–	sensitive	24
CCOc1ccccc1C(=O)/C=C/c1cc2ccccc2[nH]c1=O [CTR-32, (E)-3-(3-(2-ethoxyphenyl)-3-oxoprop-1-enyl)quinolin-2(1H)-one]	–	–	–	sensitive	70
CC(=O)O[C@H]1C(=O)[C@@]2(C)[C@H]([C@H](OC(=O)c3ccccc3)[C@]3(O)C[C@H](OC(=O)[C@H](O)[C@@H](NC(=O)c4ccccc4)c4ccccc4)C(C)=C1C3(C)C)[C@]1(OC(C)=O)CO[C@@H]1C[C@@H]2O [Paclitaxel, reference compound]	–	approximately 1 out of 5 mice showed renal abnormalities	small increases in the mitotic index	–	–
